In patent US20120225909A1, “INDAZOLE ANALOG” (priority 2009, published 2012):

Target: T1, human β3-adrenergic receptor (Homo sapiens, UniProt P13945)
T1 construct: A full-length human β3 gene is obtained from a human genomic library (made by Clontech) using this as the probe; expressed in transfected cells; host or cells: CHO (Chinese hamster ovary) cells, pcDNA3
Assay: Test Case 1-B: human β3-adrenergic receptor agonist activity (cAMP-Screen, 96-well)
Type: cell-based
Conditions: for Emax: 0.5 h, read-out: β3 receptor I.A.; for EC50 / β3 receptor I.A.: Test Case 1-B; for EC50: CHO cells, cAMP; for β3 receptor I.A.: maximum response of isoproterenol = 100%
Protocol: Measurement of Human β3-Adrenergic Receptor Agonist Activity
The human β3-adrenergic receptor agonist activity is measured using CHO (Chinese hamster ovary) cells transfected by a human β3 gene inserted in pcDNA3 (Invitrogen). […] A full-length human β3 gene is obtained from a human genomic library (made by Clontech) using this as the probe. These cells are cultured in Ham's F-12 medium containing 10% fetal calf serum and 400 μg/mL genectin (Invitrogen). These cells are sown in 96-well plates to make 2×10^4 cells/well. After culturing for approximately 20 hours, they are allowed to stand for 15 minutes in 80 μL of serum-free Ham's F-12 medium. After first dissolving the test compound by DMSO, it is serially diluted by Ham's F-12 containing 100 mmol/L HEPES and 1 mmol/L isobutylmethylxanthine, and 20 μL is added to the cells. After culturing for 30 minutes, the medium is removed, and 0.1 mL of the assay/lysis buffer contained in the cAMP-Screen kit (made by Applied Bioscience) is added and incubated for 30 minutes at 37° C. The cAMP in this cell lysate is assayed by the above cAMP-Screen kit.

T1 sequence (P13945 whole entry): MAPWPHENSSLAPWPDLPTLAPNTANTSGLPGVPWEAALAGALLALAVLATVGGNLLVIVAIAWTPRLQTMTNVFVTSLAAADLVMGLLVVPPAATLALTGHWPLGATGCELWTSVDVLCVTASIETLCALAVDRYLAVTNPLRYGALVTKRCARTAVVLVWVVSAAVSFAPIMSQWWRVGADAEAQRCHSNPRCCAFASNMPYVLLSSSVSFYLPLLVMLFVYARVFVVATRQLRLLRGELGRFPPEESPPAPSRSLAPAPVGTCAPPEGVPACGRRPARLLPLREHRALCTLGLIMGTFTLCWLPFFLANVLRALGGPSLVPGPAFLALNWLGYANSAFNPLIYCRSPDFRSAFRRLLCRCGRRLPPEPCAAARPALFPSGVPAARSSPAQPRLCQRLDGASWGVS

Row | Compound | Emax | EC50 | β3 receptor I.A.
1 | Cc1n[nH]c2cc(OCCNC[C@H](O)c3cccc(NS(=O)(=O)c4cccc(C(F)(F)F)c4)c3)ccc12 [ex65, (R)-N-(3-(1-hydroxy-2-(2-(3-methylindazol-6-yloxy)ethylamino)ethyl)phenyl)-3-(trifluoromethyl)-benzenesulfonamide] | 65% | 579 nM | –
2 | Cc1n[nH]c2cc(OCCNC[C@H](O)c3cccc(NS(=O)(=O)c4cc(F)c(F)c(F)c4)c3)ccc12 [ex77, (R)-3,4,5-trifluoro-N-(3-(1-hydroxy-2-(2-(3-methylindazol-6-yloxy)ethylamino)ethyl)phenyl) benzenesulfonamide] | – | – | 59%
3 | Cc1n[nH]c2cc(OCCNC[C@H](O)c3cccc(NS(=O)(=O)c4cccc(OC(F)F)c4)c3)ccc12 [ex66, (R)-3-(difluoro-methoxy)-N-(3-(1-hydroxy-2-(2-(3-methylindazol-6-yloxy)ethylamino)ethyl)phenyl) benzenesulfonamide] | 88% | 291 nM | –
4 | Cc1n[nH]c2cc(OCCNC[C@H](O)c3cccc(NS(=O)(=O)c4ccccn4)c3)ccc12 [ex64, (R)-N-(3-(1-hydroxy-2-(2-(3-methylindazol-6-yloxy)ethylamino)ethyl)phenyl)pyridine-2-sulfonamide] | 65% | 208 nM | –
5 | Nc1cccc(S(=O)(=O)Nc2cc([C@@H](O)CNCCOc3ccc4c(C(F)(F)F)n[nH]c4c3)ccc2Cl)c1 [ex183, (R)-3-amino-N-(2-chloro-5-(1-hydroxy-2-(2-(3-(trifluoro-methyl)-indazol-6-yloxy)ethylamino)ethyl)phenyl)ben-zenesulfonamide] | – | – | 72%
6 | (R)-N-(3-(1-hydroxy-2- (2-(3-methoxyindazol- 6-yloxy)-ethylamino) ethyl)phenyl)- ? benzenesulfonamide [ex40] | – | – | 50%
7 | Cc1n[nH]c2cc(OCCNC[C@H](O)c3cccc(NS(=O)(=O)c4c(F)cccc4F)c3)ccc12 [ex69, (R)-2,6-difluoro-N-(3-(1-hydroxy-2-(2-(3-methylindazol-6-yloxy)ethylamino)ethyl)phenyl) benzenesulfonamide] | 72% | 594 nM | –
